Patent US11680085B2, “Cyclic peptides for protection against respiratory syncytial virus” (VIROMETIX AG, priority 2017, dated 2023)

Tested on: RSV A/Tracy
Test: Micro-Neutralization Test (MNT)
Format: cell-based, respiratory syncytial virus
Details: 40 μg/ml mAb in test solution
Method: In order to assess the neutralization capacity of the mAb at 40 μg/ml against RSV A/Tracy a Micro-Neutralization Test (MNT) was performed. A 40 μg/ml Palivizumab stock was taken as positive control and 40 μg/ml stock of an isotype-matched mAb as negative control (Table 10).

Palivizumab
RSV A, Tracy MN titer (log2): 5.0 log2
